Experimental findings from patent publication US10112937B2, “P2X7 modulators and methods of use” (Janssen Pharmaceutica NV, priority 2013, dated 2018) are described below.

The assay concerns the target human P2X7 (Homo sapiens (Human), UniProt Q99572). The assay can be described thus: P2X7 antagonism in human PBMCs (IL-1β release after LPS + Bz-ATP, ELISA). It is filed as cell-based. The settings on record: for PBMC 1 μM (% control): test compound 1 μM.
Where [1] appears, read: human PBMCs, test compound 10 μM.
Setting [2] is: test compound 10 μM, LPS 30 ng/ml + 0.5 mM Bz-ATP.
Where [3] appears, read: 10 μM test compound, human PBMCs, LPS + Bz-ATP.

human P2X7, sequence (Q99572 whole entry): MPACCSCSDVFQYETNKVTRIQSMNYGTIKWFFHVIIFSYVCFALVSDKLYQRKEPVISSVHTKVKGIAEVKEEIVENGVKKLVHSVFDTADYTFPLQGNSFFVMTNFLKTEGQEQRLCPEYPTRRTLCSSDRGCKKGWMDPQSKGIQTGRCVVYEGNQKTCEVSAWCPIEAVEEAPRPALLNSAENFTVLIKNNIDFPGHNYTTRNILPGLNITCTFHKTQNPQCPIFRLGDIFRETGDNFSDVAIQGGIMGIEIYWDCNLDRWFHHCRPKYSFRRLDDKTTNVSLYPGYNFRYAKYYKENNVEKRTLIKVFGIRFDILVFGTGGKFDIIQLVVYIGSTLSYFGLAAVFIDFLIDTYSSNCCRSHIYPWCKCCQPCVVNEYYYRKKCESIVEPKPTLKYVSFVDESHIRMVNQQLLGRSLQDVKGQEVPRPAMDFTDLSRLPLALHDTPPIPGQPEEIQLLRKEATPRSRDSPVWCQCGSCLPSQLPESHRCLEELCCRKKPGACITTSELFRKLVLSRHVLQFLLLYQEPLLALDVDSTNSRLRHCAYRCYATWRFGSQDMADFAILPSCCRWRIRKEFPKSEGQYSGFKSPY

Regarding `Cc1cc(C)nc(-n2nnc3c2CCN(C(=O)c2cccc(C(F)(F)F)c2Cl)C3C)n1` (centres unmarked) [Example 253, (2-Chloro-3-(trifluoromethyl)phenyl)(1-(4,6-dimethylpyrimidin-2-yl)-4-methyl-6,7-dihydro-1H-[1,2,3]triazolo[4,5-c]pyridin-5(4H)-yl)methanone], the “PBMC 10 μM (% control)” value by setting is: under setting [1], −2.6 % control; under setting [2], −2.6 % control.
With `O=C(c1cccc(Cl)c1Cl)N1CCc2c(-c3ccccc3)n[nH]c2C1` [Example 100, 6-[(2,3-Dichlorophenyl)carbonyl]-3-phenyl-4,5,6,7-tetrahydro-1H-pyrazolo[3,4-c]pyridine], the “PBMC 1 μM (% control)” value (human PBMCs) is listed as 9.2 % control.
`CC1c2nnn(-c3ncccc3F)c2C=CN1C(=O)c1cccc(C(F)(F)F)c1Cl` (centres unmarked) [Example 82, 5-{[2-Chloro-3-(trifluoromethyl)phenyl]carbonyl}-1-(3-fluoropyridin-2-yl)-4-methyl-4,5-dihydro-1H-[1,2,3]triazolo[4,5-c]pyridine]: the “PBMC 10 μM (% control)” value under setting [1] came out at 7.9 % control.
With `CC(C)n1ccc(-n2nnc3c2CCN(C(=O)c2cccc(C(F)(F)F)c2Cl)[C@H]3C)n1` [Example 413, (S)-(2-chloro-3-(trifluoromethyl)phenyl)(1-(1-isopropyl-1H-pyrazol-3-yl)-4-methyl-6,7-dihydro-1H-[1,2,3]triazolo[4,5-c]pyridin-5(4H)-yl)methanone], the “PBMC 10 μM (% control)” value under setting [3] was 68.5 % control.
For `CCn1nccc1-n1nnc2c1C[C@H](C)N(C(=O)c1cccc(C(F)(F)F)c1Cl)C2` [Example 406, (S)-(2-chloro-3-(trifluoromethyl)phenyl)(1-(1-ethyl-1H-pyrazol-5-yl)-6-methyl-6,7-dihydro-1H-[1,2,3]triazolo[4,5-c]pyridin-5(4H)-yl)methanone], the “PBMC 10 μM (% control)” value under setting [3] was −3.6 % control.
Regarding `Cc1ccnc(-n2nnc3c2CCN(C(=O)c2cccc(OC(F)(F)F)c2)[C@@H]3C)c1` (single isomer, unassigned) [Example 376, (R*)-(4-methyl-1-(4-methylpyridin-2-yl)-6,7-dihydro-1H-[1,2,3]triazolo[4,5-c]pyridin-5(4H)-yl)(3-(trifluoromethoxy)phenyl)methanone], the “PBMC 10 μM (% control)” value under setting [1] was determined as 96.3 % control.
Consider `CC1CN(C(=O)c2cccc(C(F)(F)F)c2Cl)Cc2nnn(-c3ccccc3)c21` (centres unmarked) [Example 245, (2-Chloro-3-(trifluoromethyl)phenyl)(7-methyl-1-phenyl-6,7-dihydro-1H-[1,2,3]triazolo[4,5-c]pyridin-5(4H)-yl)methanone], for which the “PBMC 10 μM (% control)” value under setting [1] is on record as −7.3 % control.
Take `Cc1ccc(-n2nnc3c2CCN(C(=O)c2cccc(Cl)c2Cl)C3C)nc1` (centres unmarked) [Example 336, (2,3-dichlorophenyl)(4-methyl-1-(5-methylpyridin-2-yl)-6,7-dihydro-1H-[1,2,3]triazolo[4,5-c]pyridin-5(4H)-yl)methanone]: the “PBMC 10 μM (% control)” value under setting [1] is −0.5 % control.
In the case of `Cc1ccnc(-n2nnc3c2CCN(C(=O)c2cccc(Cl)c2Cl)C3C)n1` (centres unmarked) [Example 225, (2,3-dichlorophenyl)(4-methyl-1-(4-methylpyrimidin-2-yl)-6,7-dihydro-1H-[1,2,3]triazolo[4,5-c]pyridin-5(4H)-yl)methanone], the “PBMC 10 μM (% control)” value under setting [1] is recorded as −1.0 % control.
With `CC1Cc2c(-c3ccnn3C)nn(C)c2CN1C(=O)c1cccc(C(F)(F)F)c1Cl` (centres unmarked) [Example 266, (2-chloro-3-(trifluoromethyl)phenyl)(1,5-dimethyl-3-(1-methyl-1H-pyrazol-5-yl)-4,5-dihydro-1H-pyrazolo[3,4-c]pyridin-6(7H)-yl)methanone], the “PBMC 10 μM (% control)” value under setting [1] turned out to be 5.8 % control.
As for `CC1Cc2c(nnn2-c2ncccc2F)CN1C(=O)c1cccc(Cl)c1Cl` (centres unmarked) [Example 161, (2,3-Dichlorophenyl)(1-(3-fluoropyridin-2-yl)-6-methyl-6,7-dihydro-1H-[1,2,3]triazolo[4,5-c]pyridin-5(4H)-yl)methanone], under setting [1], the “PBMC 10 μM (% control)” value is given as −0.9 % control.
`Cc1cccc(-n2nnc3c2CCN(C(=O)c2cccc(Cl)c2Cl)[C@@H]3C)n1` (single isomer, unassigned) [Example 389, (R*)-(2,3-dichlorophenyl)(4-methyl-1-(6-methylpyridin-2-yl)-6,7-dihydro-1H-[1,2,3]triazolo[4,5-c]pyridin-5(4H)-yl)methanone]: the “PBMC 10 μM (% control)” value under setting [1] stood at 88.9 % control.
On the same count and under the same terms, to `CCOc1cccnc1-n1nnc2c1CCN(C(=O)c1cccc(C(F)(F)F)c1Cl)[C@@H]2C` (single isomer, unassigned) [Example 316, (R*)-(2-chloro-3-(trifluoromethyl)phenyl)(1-(3-ethoxypyridin-2-yl)-4-methyl-6,7-dihydro-1H-[1,2,3]triazolo[4,5-c]pyridin-5(4H)-yl)methanone] belongs −9.6 % control; to `C[C@@H]1Cc2c(nnn2-c2ccccn2)CN1C(=O)c1cccc(C(F)(F)F)c1Cl` (single isomer, unassigned) [Example 119, 5-{[2-Chloro-3-(trifluoromethyl)phenyl]carbonyl}-(R*)-6-methyl-1-pyridin-2-yl-4,5,6,7-tetrahydro-1H-[1,2,3]triazolo[4,5-c]pyridine], 20.0 % control.
In the case of `CC(C)n1ccc(-n2nnc3c2CCN(C(=O)c2ccnc(C(F)(F)F)c2Cl)[C@H]3C)n1` [Example 417, (S)-(3-chloro-2-(trifluoromethyl)pyridin-4-yl)(1-(1-isopropyl-1H-pyrazol-3-yl)-4-methyl-6,7-dihydro-1H-[1,2,3]triazolo[4,5-c]pyridin-5(4H)-yl)methanone], under setting [3], the “PBMC 10 μM (% control)” value is 112.2 % control.
Take `C[C@@H]1c2n[nH]c(-c3ncc(F)cn3)c2CCN1C(=O)c1cccc(C(F)(F)F)c1Cl` (single isomer, unassigned) [Example 223, (R*)-(2-chloro-3-(trifluoromethyl)phenyl)(3-(5-fluoropyrimidin-2-yl)-7-methyl-4,5-dihydro-2H-pyrazolo[3,4-c]pyridin-6(7H)-yl)methanone]: the “PBMC 10 μM (% control)” value under setting [1] was 1.8 % control.
Consider `CC1Cc2c(nnn2-c2cc(F)ccn2)CN1C(=O)c1cccc(C(F)(F)F)c1Cl` (centres unmarked) [Example 176, (2-Chloro-3-(trifluoromethyl)phenyl)(1-(4-fluoropyridin-2-yl)-6-methyl-6,7-dihydro-1H-[1,2,3]triazolo[4,5-c]pyridin-5(4H)-yl)methanone], for which the “PBMC 10 μM (% control)” value under setting [1] turned out to be 7.3 % control.
Regarding `Cn1nc2c(c1-c1ccccc1)CCN(C(=O)c1cccc(Cl)c1Cl)C2` [Example 102, 6-[(2,3-Dichlorophenyl)carbonyl]-2-methyl-3-phenyl-4,5,6,7-tetrahydro-2H-pyrazolo[3,4-c]pyridine], the “PBMC 1 μM (% control)” value (human PBMCs) was found to be 18.0 % control.
For `Cc1ccnc(-n2nnc3c2CCN(C(=O)c2cccc(Cl)c2Cl)[C@@H]3C)n1` (single isomer, unassigned) [Example 391, (R*)-(2,3-dichlorophenyl)(4-methyl-1-(4-methylpyrimidin-2-yl)-6,7-dihydro-1H-[1,2,3]triazolo[4,5-c]pyridin-5(4H)-yl)methanone], the “PBMC 10 μM (% control)” value under setting [1] is given as 112.1 % control.
Regarding `C[C@H]1c2ncn(-c3ccccn3)c2CCN1C(=O)c1cccc(Cl)c1Cl` (single isomer, unassigned) [Example 191, (S*)-(2,3-Dichlorophenyl)(4-methyl-1-(pyridin-2-yl)-6,7-dihydro-1H-imidazo[4,5-c]pyridin-5(4H)-yl)methanone], under setting [1], the “PBMC 10 μM (% control)” value worked out at 5.2 % control.
With `C[C@@H]1c2ncn(-c3ncc(F)cn3)c2CCN1C(=O)c1cccc(C(F)(F)F)c1Cl` (single isomer, unassigned) [Example 193, (R*)-(2-Chloro-3-(trifluoromethyl)phenyl)(1-(5-fluoropyrimidin-2-yl)-4-methyl-6,7-dihydro-1H-imidazo[4,5-c]pyridin-5(4H)-yl)methanone], the “PBMC 10 μM (% control)” value runs as follows: under setting [1], 1.4 % control; under setting [2], 1.4 % control.
Turning to `CC1Cc2c(nnn2-c2ncc(F)cn2)CN1C(=O)c1cccc(C(F)(F)F)c1Cl` (centres unmarked) [Example 200, 5-{[2-Chloro-3-(trifluoromethyl)phenyl]carbonyl}-1-(5-fluoropyrimidin-2-yl)-6-methyl-4,5,6,7-tetrahydro-1H-[1,2,3]triazolo[4,5-c]pyridine], under setting [1], the “PBMC 10 μM (% control)” value is given as 3.2 % control.
Turning to `CC1c2nnn(-c3cc[nH]n3)c2C=CN1C(=O)c1cccc(C(F)(F)F)c1Cl` (centres unmarked) [Example 86, 5-{[2-Chloro-3-(trifluoromethyl)phenyl]carbonyl}-4-methyl-1-(1H-pyrazol-3-yl)-4,5-dihydro-1H-[1,2,3]triazolo[4,5-c]pyridine], the “PBMC 10 μM (% control)” value under setting [1] is 13.0 % control.
Still for that read-out and setting: to `C[C@@H]1Cc2c(nnn2-c2ccn[nH]2)[C@@H](C)N1C(=O)c1cccc(C(F)(F)F)c1Cl` [Example 296, (2-chloro-3-(trifluoromethyl)phenyl)((4R,6R)-4,6-dimethyl-1-(1H-pyrazol-5-yl)-6,7-dihydro-1H-[1,2,3]triazolo[4,5-c]pyridin-5(4H)-yl)methanone] belongs 3.6 % control; to `C[C@H]1c2nnn(-c3ncccn3)c2CCN1C(=O)c1cccc(C(F)(F)F)c1F` (single isomer, unassigned) [Example 270, (S*)-(2-fluoro-3-(trifluoromethyl)phenyl)(4-methyl-1-(pyrimidin-2-yl)-6,7-dihydro-1H-[1,2,3]triazolo[4,5-c]pyridin-5(4H)-yl)methanone], 47.9 % control; to `C[C@H]1Cc2c(nnn2-c2ccccc2)CN1C(=O)c1cccc(C(F)(F)F)c1Cl` [Example 288, (S)-(2-chloro-3-(trifluoromethyl)phenyl)(6-methyl-1-phenyl-6,7-dihydro-1H-[1,2,3]triazolo[4,5-c]pyridin-5(4H)-yl)methanone], 4.4 % control.
Consider `Cc1ccnc(-n2nnc3c2CCN(C(=O)c2cccc(C(F)(F)F)c2Cl)C3C)c1` (centres unmarked) [Example 299, (2-chloro-3-(trifluoromethyl)phenyl)(4-methyl-1-(4-methylpyridin-2-yl)-6,7-dihydro-1H-[1,2,3]triazolo[4,5-c]pyridin-5(4H)-yl)methanone], for which the “PBMC 10 μM (% control)” value under setting [1] worked out at 1.5 % control.
